Experimental findings from PubChem BioAssay (NCI) are described below.

Assay in all cases: DTP human tumour cell line panel, 48 h
The subject of experiment [1] is HT29 colon.
The subject of experiment [2] is OVCAR-3 ovarian.
In experiment [3] the test system is OVCAR-4 ovarian.
For experiment [4], the system named is RPMI-8226 leukemia.
The subject of experiment [5] is SF-268 CNS.
The subject of experiment [6] is SK-MEL-28 melanoma.
Experiment [7] has as its system SK-OV-3 ovarian.
In experiment [8] the test system is UACC-62 melanoma.
Experiment [9] has as its system BT-549 breast.
For experiment [10], the system named is A498 renal.

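Five concentrations, 48 hours, 96-well plates. GI50: concentration for 50% inhibition of growth. At the TGI there is no net growth.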

As to `CCOC(=O)/C(C#N)=C\Sc1ccccc1`, the TGI in [1] was 84.4 µM; in experiment [2] it was 39.2 µM; in experiment [3], more than 100 µM; in [4] it was more than 100 µM; in [5] it was 28.9 µM; in experiment [6], 42.8 µM. In addition, the concentration for total growth inhibition (TGI) in [7] turned out to be 74.7 µM; in [8] it was 42.3 µM.

`O=C(NCc1ccco1)C1CCN(S(=O)(=O)c2ccc(Cl)cc2)CC1`: the GI50 in [9] is more than 100 µM; in experiment [1], more than 100 µM; in experiment [2], more than 100 µM; in experiment [3], 54.9 µM; in experiment [4], 94.9 µM; in experiment [5], more than 100 µM. Also, the results for the GI50 in experiment [6], in experiment [7] and in experiment [8] were more than 100 µM, more than 100 µM and 80.5 µM, respectively. Also, the concentration for total growth inhibition (TGI) in experiment [9], in [1], in experiment [2], in [3], in experiment [4] and in [5] was more than 100 µM each time. Moreover, the concentration for total growth inhibition (TGI) in experiment [6], in experiment [7] and in experiment [8] was more than 100 µM each time.

`CC(C)N1C(C)[C@@H](c2ccccc2)O[P@@]1(=O)CC1=CCCCC1` (some centres undefined): the concentration for total growth inhibition (TGI) in experiment [10], in experiment [1], in experiment [2], in [4], in experiment [5] and in [6] was more than 100 µM throughout. The TGI in experiment [7] and in experiment [8] was more than 100 µM in each case.

With `Nn1c(-c2cccc(Cl)c2)nc2ccccc2c1=O`, the total growth inhibition concentration (TGI) in experiment [10], in [1], in [2], in experiment [3], in experiment [4] and in [5] was more than 100 µM each time. Moreover, the concentration for total growth inhibition (TGI) in experiment [6], in experiment [7] and in experiment [8] was more than 100 µM in each case.

In the case of `CN(C)N=Nc1cccc(C(N)=O)c1`, the total growth inhibition concentration (TGI) in [10], in experiment [1], in experiment [2], in experiment [3], in experiment [4] and in experiment [5] was more than 100 µM in each case. The TGI in experiment [6] and in [7] was more than 100 µM throughout.

With `C=C(C)C1CCC2=CC(CC3(C)OC3C3=CC(C(=O)OC)=C(C1)O3)OC2=O` (centres undefined), the TGI in experiment [10], in [9], in experiment [1], in experiment [2], in experiment [5] and in [6] was more than 100 µM in each case.

For the compound `COc1c(-c2ccc3c(c2)OCO3)oc2cc(O)cc(O)c2c1=O`, the total growth inhibition concentration (TGI) was 72.3 µM in experiment [10]; more than 100 µM in experiment [1]; 95 µM in experiment [3]; more than 100 µM in [4]; more than 100 µM in experiment [5]; more than 100 µM in [6]. Also, the TGI in experiment [7] is 85.4 µM; in [8], more than 100 µM.

For the compound `CC(=O)[CH-]C(=O)c1ccccc1.CC(=O)[CH-]C(=O)c1ccccc1.CC[C@H](/C=C/C(C)[C@H]1CCC2[C@@H]3CC=C4C[C@@H]([O-])CC[C@]4(C)C3CC[C@@]21C)C(C)C.CC[C@H](/C=C/C(C)[C@H]1CCC2[C@@H]3CC=C4C[C@@H]([O-])CC[C@]4(C)C3CC[C@@]21C)C(C)C.Cl.[Ti+4]` (some centres undefined), the GI50 in experiment [10], in experiment [1], in experiment [2], in [3], in [4] and in experiment [5] was more than 25 µM in each case. The GI50 was 6.08 µM in experiment [6], more than 25 µM in experiment [7] and more than 25 µM in [8]. For the same compound, the total growth inhibition concentration (TGI) in experiment [10], in experiment [1], in [2], in [3], in experiment [4] and in experiment [5] was more than 25 µM in each case. The TGI in experiment [6], in experiment [7] and in experiment [8] was more than 25 µM throughout.

Consider `CN(CCCN1C(=O)c2cccc3cc([N+](=O)[O-])cc(c23)C1=O)CCN(C)CCCN1C(=O)c2cccc3cc([N+](=O)[O-])cc(c23)C1=O`, for which the total growth inhibition concentration (TGI) in [10], in experiment [1], in experiment [2], in [3], in [4] and in experiment [5] was more than 39.3 µM in each case. Moreover, the TGI in [6], in [7] and in experiment [8] was more than 39.3 µM in each case.

With `COc1cc([C@@H]2OC(=O)C3C2C(=O)O[C@H]3c2ccc(O)c(OC)c2)ccc1O` (some centres undefined), the TGI in experiment [10], in experiment [1], in experiment [2], in experiment [3], in experiment [4] and in experiment [5] was more than 100 µM in each case. Further, the TGI in experiment [6], in experiment [7] and in experiment [8] was more than 100 µM each time.

`COc1cc2c3c(n([C@@H]4CCOC4)c(=O)c2cc1OC)-c1cc2c(cc1C3=O)OCO2`: the GI50 is 0.0218 µM in [9], 0.0141 µM in experiment [1], 0.0127 µM in [4] and less than 0.01 µM in [5]. In addition, the TGI in experiment [9], in [1], in experiment [4] and in [5] was more than 100 µM in each case.

On to `COc1cccc2c(SCC(=O)Nc3ccccc3-c3ccccc3NC(=O)CSc3c4ccccc4nc4c(OC)cccc34)c3ccccc3nc12`, for which the TGI in experiment [1], in experiment [2], in experiment [3], in experiment [5], in [6] and in experiment [8] was more than 100 µM each time.

`CCCCCCCCC(C)CCCCCCCCC(=O)OCC(COP(=O)([O-])OCC[N+](C)(C)C)OC(=O)CCCCCCCCC(C)CCCCCCCC` (centres undefined): the TGI in [10], in experiment [1], in [2], in experiment [3], in [4] and in [5] was more than 100 µM throughout. In addition, the TGI in [6], in experiment [7] and in experiment [8] was more than 100 µM throughout.

For orientation: TGI means the concentration giving total growth inhibition. In general, GI50 refers to the concentration at which growth is held to half of that of the control.
